Reference: patent publication US20230225315A1, “METHODS OF DELIVERING PLANT VIRUS-BASED NANOPESTICIDES” (priority 2019, published 2023)

Assays:
[1] = Soil column mobility (soil transport behaviour); assay type: physicochemical
Method: […] […] (pH 7.0) to the centre of the soil surface at the top of the column We added 10 mM KP buffer (pH 7.0) at a constant flow rate of 1.5 ml min^−1 and collected the eluent in 500-μL fractions. Up to 150 fractions were collected in each trial (two trials for each formulation and depth) and stored at 4° C.
The elution fractions containing TMGMV, PhMV or CPMV were analysed by SDS-PAGE to determine the mass of nanoparticles recovered in each elution fraction. […] TMGMV and PhMV were analysed on 4-12% NuPage polyacrylamide SDS gels cast according to the Surecast Handcast protocol (Invitrogen). […]
All nanoparticles were imaged in triplicate and the images were analysed using ImageJ The area under the curve (AUC) of the standards was used to create a linear standard curve relating the AUC of the elution samples to the total mass of nanoparticles present in the corresponding elution fraction. […]
To establish the soil transport behaviour of each formulation, we conducted mobility studies using a cylindrical column of diameter 28 mm packed with topsoil at a constant bulk density of 0.32 g cm^−3. […] Fractions containing virus-based formulations were analysed by SDS-PAGE to determine the mass of recovered nanoparticles. […]

nematode = conditions: concentration to be achieved in the rhizosphere; cited from earlier work
[2] = cited from earlier work

| Substance | soil depth penetrated by free Cy5 ([1]; 500 μg free Cy5, soil column 10 mm diameter) [cm] | mass of injected Cy5 recovered ([1]; free Cy5, column with a soil depth of 2 cm) | IC50 value (nematode) | solubility in water [2] |
| --- | --- | --- | --- | --- |
| Cyanine 5 [Cy5] | ≤ 4 | About 40% |  |  |
| abamectin |  |  | 1.309×10^−4 mg cm^−3 | insoluble |
